Earlier results as cited in US4559324A, “Polypeptide-diesters, their production and use” (Takeda Chemical Industries, Ltd., priority 1982, dated 1985).

Tested on: Substance P
Conditions: S. Rosell and K. Folkers, TIPS, 211 (1982)

(D-Pro^2, D-Phe^7, D-Trp^9)-Substance P
antagonist activity against Substance P: sufficiently active

(D-Pro^2, D-Trp^7, D-Trp^9)-Substance P
antagonist activity against Substance P: sufficiently active
